From US10377717B2, “Farnesoid X receptor agonists and uses thereof” (Metacrine, Inc., priority 2015, dated 2019)

The molecules below were run against hFXR (Homo sapiens (Human), UniProt Q96RI1) (assay: In Vitro FXR Assay (TK), luciferase reporter in transfected CV-1 cells). Conditions: TK-ECRE-luc reporter, hFXR/hRXR, 18 hrs, maximum efficacy <25% of Fexaramine control classified as '+'.
Format: cell-based
Experimental: CV-1 cells were seeded at a density of 2,000,000 cells in a T175 flask with DMEM+10% charcoal double-stripped FBS and incubated at 37° C. in 5% CO2 for 18 h (O/N).
After 18 h of incubation, the medium in the T175 flask was changed with fresh DMEM+10% charcoal super-stripped serum. In a polypropylene tube, 2500 μL OptiMEM (Life Technologies, Cat #31985-062) was combined with expression plasmids for hFXR, hRXR, TK-ECRE-luc and pCMX-YFP. The tube was then briefly vortexed and incubated at room temperature for 5 minutes. Transfection reagent (X-tremeGENE HP from Roche, Cat #06 366 236 001) was added to the OptiMEM/plasmid mixture vortexed and incubated at room temperature for 20 minutes. Following incubation, the transfection reagent/DNA mixture complex was added to cells in the T175 flask and the cells were incubated at 37° C. in 5% CO2 for 18 h (O/N).
Compounds were serially diluted in DMSO and added to transfected CV-1 cells. The cells were then incubated for 18 hrs. The next day cells were lysed and examined for luminescence.

hFXR, sequence (Q96RI1 whole entry): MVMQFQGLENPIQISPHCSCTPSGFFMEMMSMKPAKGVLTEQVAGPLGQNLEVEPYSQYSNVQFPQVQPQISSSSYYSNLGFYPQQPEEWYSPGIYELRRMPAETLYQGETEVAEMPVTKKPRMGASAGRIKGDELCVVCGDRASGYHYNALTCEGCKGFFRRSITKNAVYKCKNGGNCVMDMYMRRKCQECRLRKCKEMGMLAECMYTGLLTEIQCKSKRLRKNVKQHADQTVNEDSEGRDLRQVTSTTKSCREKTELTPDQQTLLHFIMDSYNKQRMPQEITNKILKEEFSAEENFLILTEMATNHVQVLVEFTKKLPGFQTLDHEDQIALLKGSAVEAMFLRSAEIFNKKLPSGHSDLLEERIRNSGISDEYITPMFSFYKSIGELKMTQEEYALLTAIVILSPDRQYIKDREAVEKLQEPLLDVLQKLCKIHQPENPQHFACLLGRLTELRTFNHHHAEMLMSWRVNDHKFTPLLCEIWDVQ
hFXR, sequence (P19793 whole entry partner): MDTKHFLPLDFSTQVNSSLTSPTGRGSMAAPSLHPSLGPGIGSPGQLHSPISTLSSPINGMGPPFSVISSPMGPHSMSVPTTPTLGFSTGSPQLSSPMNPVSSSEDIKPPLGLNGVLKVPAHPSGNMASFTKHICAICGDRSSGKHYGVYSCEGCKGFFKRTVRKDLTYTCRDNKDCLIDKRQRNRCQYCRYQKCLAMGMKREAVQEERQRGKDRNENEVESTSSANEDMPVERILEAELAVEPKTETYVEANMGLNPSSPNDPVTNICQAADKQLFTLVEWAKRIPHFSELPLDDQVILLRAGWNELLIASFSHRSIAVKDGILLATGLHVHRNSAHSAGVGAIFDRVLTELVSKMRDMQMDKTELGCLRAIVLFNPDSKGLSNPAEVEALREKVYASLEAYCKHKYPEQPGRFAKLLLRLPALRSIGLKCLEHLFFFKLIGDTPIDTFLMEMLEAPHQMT

SMILES | EC50
COC(=O)c1ccc2c(N(Cc3ccc(-c4cnc(OC)c(F)c4)cc3)C(=O)CC(C)(C)C)nccc2c1 [Compound 35, Methyl 1-(N-(4-(5-fluoro-6-methoxypyridin-3-yl)benzyl)-3,3-dimethylbutanamido)isoquinoline-6-carboxylate] | ≤ 1 µM
COc1ccc(-c2ccc(CN(C(=O)CC(C)(C)C)c3nccc4cc(C(=O)OC(C)C)ccc34)cc2)cc1C#N [Compound 68, Isopropyl 1-(N-((3′-cyano-4′-methoxy-[1,1′-biphenyl]-4-yl)methyl)-3,3-dimethylbutanamido) isoquinoline-6-carboxylate] | ≤ 1 µM
COC(=O)c1ccc2c(N(Cc3ccc(-c4ccc5c(ccn5C)c4)cc3)C(=O)CC(C)(C)C)nccc2c1 [Compound 44, Methyl 1-(3,3-dimethyl-N-(4-(1-methyl-1H-indol-5-yl)benzyl)butanamido)isoquinoline-6-carboxylate] | ≤ 1 µM
COC(=O)c1ccc2c(N(Cc3ccc(-c4ccc(N(C)C)cc4)cc3)C(=O)C(C)(C)C)nccc2c1 [Compound 17, Methyl 1-(N-((4-(dimethylamino)-[1,1′-biphenyl]-4-yl)methyl)pivalamido)isoquinoline-6-carboxylate] | 1 to 10 µM
COC(=O)c1ccc2c(N(Cc3ccc(-c4ccc(CCO)cc4)cc3)C(=O)CC(C)(C)C)nccc2c1 [Compound 61, Methyl 1-(N-((4′-(2-hydroxyethyl)-[1,1′-biphenyl]-4-yl)methyl)-3,3-dimethylbutanamido)isoquinoline-6-carboxylate] | ≤ 1 µM
COC(=O)c1ccc2c(N(Cc3ccc(-c4ccc(OC)cc4)cc3)C(=O)CC(C)(C)C)nccc2c1 [Compound 45, Methyl 1-(N′-((4′-methoxy-[1,1′-biphenyl]-4-yl)methyl)-3,3-dimethylbutanamido)isoquinoline-6-carboxylate] | ≤ 1 µM
COC(=O)c1ccc2c(N(Cc3ccc(-c4ccc(OC)c(C)c4)cc3)C(=O)CC3CC3)nccc2c1 [Compound 80, Methyl 1-(2-cyclopropyl-N-((4′-methoxy-3′-methyl-[1,1′-biphenyl]-4-yl)methyl)acetamido)isoquinoline-6-carboxylate] | ≤ 1 µM
COC(=O)c1ccc2c(N(Cc3ccc(-c4ccc(OC)c(C)c4)cc3)C(=O)C3CCCCCC3)nccc2c1 [Compound 25, Methyl 1-(N-((4′-methoxy-3′-methyl-[1,1′-biphenyl]-4-yl)methyl)cycloheptanecarboxamido) isoquinoline-6-carboxylate] | ≤ 1 µM
CCOC(=O)c1ccc2c(N(Cc3ccc(-c4ccc(OC)c(C)c4)cc3)C(=O)C3CCCCC3)cccc2n1 [Compound 23, Ethyl 5-(N-((4′-methoxy-3′-methyl-[1,1′-biphenyl]-4-yl)methyl)cyclohexanecarboxamido) quinoline-2-carboxylate] | 1 to 10 µM
COC(=O)c1ccc2c(N(Cc3ccc(-c4ccc(OC)c(C)c4)cc3)C(=O)C(C)C)nccc2c1 [Compound 28, Methyl 1-(N-((4′-methoxy-3′-methyl-[1,1′-biphenyl]-4-yl)methyl)isobutyramido) isoquinoline-6-carboxylate] | ≤ 1 µM
COC(=O)c1ccc2c(N(Cc3ccc(-c4ccc(C)c(C#N)c4)cc3)C(=O)CC(C)(C)C)nccc2c1 [Compound 30, Methyl 1-(N-((3′-cyano-4′-methyl-[1,1′-biphenyl]-4-yl)methyl)-3,3-dimethylbutanamido)isoquinoline-6-carboxylate] | ≤ 1 µM
COC(=O)c1ccc2c(N(Cc3ccc(-c4ccc5c(c4)OCCO5)cc3)C(=O)CC(C)(C)C)nccc2c1 [Compound 48, Methyl 1-(N-(4-(2,3-dihvdrobenzo[b][1,4]dioxin-6-yl)benzyl)-3,3-dimethylbutanamido)isoquinoline-6-carboxylate] | ≤ 1 µM
COC(=O)c1ccc2c(N(Cc3ccc(-c4ccc5c(c4)OC(F)(F)O5)cc3)C(=O)CC(C)(C)C)nccc2c1 [Compound 34, Methyl 1-(N-(4-(2,2-difluorobenzo[d][1,3]dioxol-5-yl)benzyl)-3,3-dimethylbutanamido)isoquinoline-6-carboxylate] | ≤ 1 µM
COC(=O)c1ccc2c(N(Cc3ccc(-c4ccc(C(F)(F)F)nc4)cc3)C(=O)CC(C)(C)C)nccc2c1 [Compound 33, Methyl 1-(3,3-dimethyl-N-(4-(6-(trifluoromethyl)pyridin-3-yl)benzyl)butanamido)isoquinoline-6-carboxylate] | 1 to 10 µM
COC(=O)c1ccc2c(N(Cc3ccc(-c4ccc5sc(C)nc5c4)cc3)C(=O)CC(C)(C)C)nccc2c1 [Compound 50, Methyl 1-(3,3-dimethyl-N-(4-(2-methylbenzo[d]thiazol-5-yl)benzyl)butanamido)isoquinoline-6-carboxylate] | 1 to 10 µM
COC(=O)c1cc2cccc(N(Cc3ccc(-c4ccc(N(C)C)cc4)cc3)C(=O)C3CCCCC3)c2[nH]1 [Compound 10, Methyl 7-(N-((4′-(dimethylamino)-[1,1′-biphenyl]-4-yl)methyl)cyclohexanecarboxamido)-1H-indole-2-carboxylate] | ≥ 10 µM
COC(=O)c1ccc2c(N(Cc3ccc(-c4ccc(C5CC5)cc4)cc3)C(=O)CC(C)(C)C)nccc2c1 [Compound 40, Methyl 1-(N-((4′-cyclopropyl-[1,1′-biphenyl]-4-yl)methyl)-3,3-dimethylbutanamido)isoquinoline-6-carboxylate] | ≤ 1 µM
COC(=O)c1ccc2c(N(Cc3ccc(-c4ccc(OC)c(C)c4)cc3)C(=O)CC(C)(C)C)nccc2c1 [Compound 19, Methyl 1-(N-((4′-methoxy-3′-methyl-[1,1′-biphenyl]-4-yl)methyl)-3,3-dimethylbutanamido)isoquinoline-6-carboxylate] | ≤ 1 µM
COC(=O)c1ccc2c(N(Cc3ccc(-c4ccc5c(c4)CCN5C)cc3)C(=O)CC(C)(C)C)nccc2c1 [Compound 64, Methyl 1-(3,3-dimethyl-N-(4-(1-methylindolin-5-yl)benzyl)butanamido)isoquinoline-6-carboxylate] | ≤ 1 µM
COC(=O)c1ccc2c(N(Cc3ccc(-c4ccc(OC)c(C)c4)cc3)C(=O)C3CCCC3)nccc2c1 [Compound 71, Methyl 1-(N-((4′-methoxy-3′-methyl-[1,1′-biphenyl]-4-yl)methyl)cyclopentanecarboxamido) isoquinoline-6-carboxylate] | ≤ 1 µM

Second part, the molecule after the results:

EC50 | SMILES
1 to 10 µM | COc1ccc([C@H]2CC[C@H](CN(C(=O)CC(C)(C)C)c3nccc4cc(C(=O)O)ccc34)CC2)cc1C [Compound 100, 1-(N-((trans-4-(4-Methoxy-3-methylphenyl)cyclohexyl)methyl)-3,3-dimethylbutanamido)isoquinoline-6-carboxylic Acid]
1 to 10 µM | COC(=O)c1ccc2c(N(CC3CCN(c4ccc(OC)c(C)c4)CC3)C(=O)CC(C)(C)C)nccc2c1 [Compound 98, Methyl 1-(N-((1-(4-methoxy-3-methylphenyl)piperidin-4-yl)methyl)-3,3-dimethylbutanamido)isoquinoline-6-carboxylate]
1 to 10 µM | COC(=O)c1ccc2c(N(C[C@H]3CC[C@H](c4ccc(Cl)cc4)CC3)C(=O)CC(C)(C)C)nccc2c1 [Compound 95, Methyl 1-(N-((trans-4-(4-chlorophenyl)cyclohexyl)methyl)-3,3-dimethylbutanamido)isoquinoline-6-carboxylate]
1 to 10 µM | COC(=O)c1ccc2c(N(C[C@H]3CC[C@H](c4ccccc4C)CC3)C(=O)CC(C)(C)C)nccc2c1 [Compound 89, Methyl 1-(3,3-dimethyl-N-((trans-4-(o-tolyl)cyclohexyl)methyl)butanamido)isoquinoline-6-carboxylate]
≤ 1 µM | COC(=O)c1ccc2c(N(C[C@H]3CC[C@H](c4ccc(OC)c(C)c4)CC3)C(=O)CC(C)(C)C)nccc2c1 [Compound 96, Methyl 1-(N-((trans-4-(4-methoxy-3-methylphenyl)cyclohexyl)methyl)-3,3-dimethylbutanamido)isoquinoline-6-carboxylate]
≤ 1 µM | CCC(C)(C)CC(=O)N(C[C@H]1CC[C@H](c2ccc(OC)c(C)c2)CC1)c1nccc2cc(C(=O)OC(C)C)ccc12 [Compound 88, Isopropyl 1-(N-((trans-4-(4-methoxy-3-methylphenyl)cyclohexyl)methyl)-3,3-dimethylpentanamido)isoquinoline-6-carboxylate]
1 to 10 µM | COC(=O)/C=C/c1ccc2c(N(Cc3ccc(-c4ccc(OC)c(C)c4)cc3)C(=O)CC(C)(C)C)nccc2c1 [Compound 102, (E)-Methyl 3-(1-(N-((4′-methoxy-3′-methyl-[1,1′-biphenyl]-4-yl)methyl)-3,3-dimethylbutanamido)isoquinolin-6-yl)acrylate]
≤ 1 µM | COC(=O)c1ccc2c(N(C[C@H]3CC[C@H](c4ccc(OC)cc4)CC3)C(=O)CC(C)(C)C)nccc2c1 [Compound 94, Methyl 1-(N-((trans-4-(4-methoxyphenyl)cyclohexyl)methyl)-3,3-dimethylbutanamido)isoquinoline-6-carboxylate]
≥ 10 µM | COc1ccc(-c2ccc(CN(C(=O)CC(C)(C)C)c3nccc4cc(C(=O)O)ccc34)cc2)cc1C [Compound 101, 1-(N-((4′-methoxy-3′-methyl-[1,1′-biphenyl]-4-yl)methyl)-3,3-dimethylbutanamido) isoquinoline-6-carboxylic acid]
≥ 10 µM | COC(=O)c1ccc2c(N(Cc3ccc(-c4ccc(OC)c(C)c4)cc3)C(=O)CCO)nccc2c1 [Compound 84, Methyl 1-(3-hydroxy-N-((4′-methoxy-3′-methyl-[1,1′-biphenyl]-4-yl)methyl)propanamido) isoquinoline-6-carboxylate]
